Test [1] has as its target Metallo-beta-lactamase type 2 (Bacteria) (UniProt C7C422). Kind of test: Inhibition of bacterial NDM-1 assessed as substrate hydrolysis at 50 uM using imipenem as substrate by spectrophotometric analysis relative to control.
For test [2], the system named is Bacteria. The experiment in a line: Inhibition of bacterial VIM-2 assessed as substrate hydrolysis at 50 uM using imipenem as substrate by spectrophotometric analysis relative to control.
The test system of test [3] is Bacteria. The experiment in a line: Inhibition of bacterial IMP-1 assessed as substrate hydrolysis at 50 uM using imipenem as substrate by spectrophotometric analysis relative to control.

A value given as a limit tells only on which side of the number the result lay.

One may read the inhibition as the percentage by which the read-out fell short of the control.

Metallo-beta-lactamase type 2 (Bacteria), sequence (C7C422 whole entry): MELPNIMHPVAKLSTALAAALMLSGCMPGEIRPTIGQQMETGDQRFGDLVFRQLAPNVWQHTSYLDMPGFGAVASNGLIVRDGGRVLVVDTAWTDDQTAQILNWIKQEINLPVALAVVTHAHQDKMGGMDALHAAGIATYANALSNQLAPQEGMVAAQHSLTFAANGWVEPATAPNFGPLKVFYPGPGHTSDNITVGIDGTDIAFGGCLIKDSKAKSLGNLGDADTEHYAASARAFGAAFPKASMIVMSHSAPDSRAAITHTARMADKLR

Turning to `CC[C@H](C)Cn1cc(/C=C2\Oc3cc(O)cc(O)c3C2=O)c2ccccc21`, the inhibition in test [1] was 49%; in the test with Bacteria [2], less than 10%; in the test on Bacteria [3], 46%.

In the case of `COc1cc(OC)c2c(c1)O/C(=C\c1ccc(F)cc1F)C2=O`, the values for the inhibition (in test [1]; in the test with Bacteria [2]; in the test on Bacteria [3]) were 35%, less than 10% and 32%, respectively.

On to `COc1ccc(/C=C2\Oc3cc(O)cc(O)c3C2=O)c(OC)c1`, for which the results for the inhibition (in test [1]; in the test with Bacteria [2]; in the test with Bacteria [3]) were 52%, less than 10% and 43.6%, respectively.

For the molecule `COc1cc(O)ccc1/C=C1\Oc2ccccc2C1=O`, the inhibition (in test [1]; with Bacteria [2]; in the test with Bacteria [3]) was less than 10% in each case.

For `CCCCc1ccc(/C=C2\Oc3c(ccc(O)c3O)C2=O)cc1`, the inhibition (in test [1]; with Bacteria [2]; with Bacteria [3]) was less than 10% in each case.

Turning to `O=C1/C(=C/c2ccc(Cl)cc2)Oc2c(O)cccc21`, the inhibition (in test [1]; in the test with Bacteria [2]; in the test with Bacteria [3]) was less than 10% throughout.

For `O=C1/C(=C/c2ccc(-n3ccnc3)cc2)Oc2cc(O)cc(O)c21`, the inhibition in test [1] is 51%; with Bacteria [2] it was less than 10%; with Bacteria [3], 23%.

With `COc1cc(OC)c2c(c1)O/C(=C\c1ccc(-c3cccs3)cc1)C2=O`, the inhibition in test [1] is 39%; with Bacteria [2], less than 10%; with Bacteria [3], 24%.

`NCCN[C@H]1CC[C@@H](CC(=O)N[C@H]2Cc3cccc(C(=O)O)c3OB2O)CC1`: the inhibition in test [1] is greater than 98%; in the test with Bacteria [2], greater than 98%; in the test with Bacteria [3] it was 41%.

Turning to `O=C1/C(=C/c2ccc(O)cc2O)Oc2c1ccc(O)c2O`, the inhibition in test [1] was 20%; in the test with Bacteria [2] it was less than 10%; in the test with Bacteria [3], 24%.

In the case of `CCCCn1cc(/C=C2\Oc3cc(O)cc(O)c3C2=O)c2cc(O)ccc21`, the inhibition in test [1] is less than 10%; in the test with Bacteria [2] it was less than 10%; with Bacteria [3], 30%.

As for `COc1ccc(/C=C2\Oc3cc(O)cc(O)c3C2=O)cc1OC`, the inhibition is 23% in test [1], less than 10% in the test with Bacteria [2] and 21% in the test with Bacteria [3].

Take `O=C1/C(=C/c2ccc(O)cc2O)Oc2ccccc21`: the inhibition (in test [1]; with Bacteria [2]; in the test with Bacteria [3]) was less than 10% each time.

Turning to `O=C(O)c1ccc(/C=C2\Oc3c(O)cccc3C2=O)cc1`, the inhibition in test [1] is 24%; in the test on Bacteria [2], less than 10%; in the test on Bacteria [3], less than 10%.

With `CCCCOc1ccc(/C=C2\Oc3cc(O)cc(O)c3C2=O)cc1`, the inhibition was 41% in test [1], less than 10% with Bacteria [2] and 25% in the test with Bacteria [3].

Regarding `COc1cc(/C=C2\Oc3cc(O)ccc3C2=O)ccc1O`, the inhibition in test [1] is less than 10%; in the test on Bacteria [2] it was 14%; in the test on Bacteria [3] it was 13%.

Regarding `COc1ccc(/C=C2\Oc3cc(OC)cc(OC)c3C2=O)c(OC)c1`, the inhibition (in test [1]; in the test on Bacteria [2]; in the test with Bacteria [3]) was less than 10% each time.

Turning to `COc1ccc(/C=C2\Oc3cc(O)ccc3C2=O)c(OC)c1`, the figures for the inhibition (in test [1]; in the test on Bacteria [2]; in the test with Bacteria [3]) were 17%, less than 10% and 17.9%, respectively.

Consider `CCc1ccc(/C=C2\Oc3cc(O)cc(O)c3C2=O)cc1`, for which the inhibition in test [1] was 55%; in the test on Bacteria [2], less than 10%; in the test on Bacteria [3], 24.9%.

For the molecule `COc1ccc(/C=C2\Oc3cc(O)cc(O)c3C2=O)cc1`, the results for the inhibition (in test [1]; in the test with Bacteria [2]; in the test on Bacteria [3]) were 38%, less than 10% and 20%, respectively.

`O=C1/C(=C/c2ccc(O)cc2O)Oc2cc(O)ccc21`: the inhibition (in test [1]; in the test on Bacteria [2]; in the test with Bacteria [3]) was less than 10% in each case.

As to `Cn1cc(/C=C2\Oc3cccc(O)c3C2=O)c2cc(Br)ccc21`, the values for the inhibition (in test [1]; with Bacteria [2]; with Bacteria [3]) were less than 10%, less than 10% and 21.4%, respectively.

Regarding `O=C1/C(=C/c2ccc(C3CCCCC3)cc2)Oc2cc(O)cc(O)c21`, the inhibition in test [1] is 16%; in the test with Bacteria [2], less than 10%; with Bacteria [3] it was less than 10%.

As to `O=C1/C(=C/c2ccc(O)cc2)Oc2cc(O)cc(O)c21`, the results for the inhibition (in test [1]; with Bacteria [2]; with Bacteria [3]) were less than 10%, less than 10% and 12.4%, respectively.

In the case of `COc1ccc(/C=C2\Oc3cc(O)cc(O)c3C2=O)c(OC)c1OC`, the inhibition in test [1] was 14%; with Bacteria [2], less than 10%; in the test on Bacteria [3] it was 20%.

With `Cn1cc(/C=C2\Oc3cc(O)ccc3C2=O)c2cc(Br)ccc21`, the inhibition was 18% in test [1], less than 10% in the test with Bacteria [2] and 39% in the test with Bacteria [3].

Turning to `CCCCOc1ccc(/C=C2\Oc3cc(O)cc(O)c3C2=O)c(O)c1`, in test [1], the inhibition worked out at 46%.

In the case of `Cc1cccc(Cn2cc(/C=C3\Oc4cc(O)cc(O)c4C3=O)c3ccccc32)c1`, the figures for the inhibition (in test [1]; in the test with Bacteria [2]; in the test on Bacteria [3]) were 54%, 11% and 43%, respectively.

As for `O=C1/C(=C/c2ccc(F)cc2)Oc2c(O)cccc21`, the inhibition (in test [1]; in the test with Bacteria [2]; with Bacteria [3]) was less than 10% each time.

Take `CC(C)(C)CCn1cc(/C=C2\Oc3cc(O)cc(O)c3C2=O)c2ccccc21`: the values for the inhibition (in test [1]; in the test on Bacteria [2]; in the test on Bacteria [3]) were 11.2%, less than 10% and 28%, respectively.

In the case of `CN1CCN(c2ccc(/C=C3\Oc4cc(O)ccc4C3=O)cc2)CC1`, the inhibition in test [1] is less than 10%; with Bacteria [2] it was less than 10%; with Bacteria [3] it was 19%.

For `COc1ccc(/C=C2\Oc3c(O)cccc3C2=O)cc1`, the inhibition in test [1] was 20%; with Bacteria [2], less than 10%; in the test with Bacteria [3] it was less than 10%.

`O=C1/C(=C/c2ccccc2O)Oc2cc(O)cc(O)c21`: the inhibition is less than 10% in test [1], less than 10% in the test with Bacteria [2] and 14% in the test with Bacteria [3].

As to `CN(C)c1ccc(/C=C2\Oc3cc(O)cc(O)c3C2=O)c(O)c1`, the results for the inhibition (in test [1]; in the test on Bacteria [2]; in the test with Bacteria [3]) were 55%, less than 10% and 27%, respectively.

Regarding `Cc1ccc(O)c(/C=C2\Oc3cc(O)cc(O)c3C2=O)c1`, the results for the inhibition (in test [1]; with Bacteria [2]; in the test on Bacteria [3]) were less than 10%, less than 10% and 12%, respectively.

Turning to `O=C1/C(=C/c2ccc(O)cc2O)Oc2cc(O)cc(O)c21`, the inhibition in test [1] was less than 10%; with Bacteria [2], less than 10%; in the test with Bacteria [3] it was 14%.

As to `O=C1/C(=C/c2c(O)cc(O)cc2O)Oc2c(O)cccc21`, the inhibition (in test [1]; in the test with Bacteria [2]; in the test with Bacteria [3]) was less than 10% each time.

On to `COc1cc(O)ccc1/C=C1\Oc2cc(O)ccc2C1=O`, for which the inhibition was less than 10% in test [1], less than 10% with Bacteria [2] and 13% with Bacteria [3].

Regarding `COc1ccc(/C=C2\Oc3c(ccc(O)c3O)C2=O)c(OC)c1`, the inhibition in test [1] was determined as 30%; in the test with Bacteria [2] it was 10.3%; in the test with Bacteria [3] it was 28%.

On to `O=C1/C(=C/c2ccccc2O)Oc2cc(O)ccc21`, for which the inhibition (in test [1]; with Bacteria [2]; in the test on Bacteria [3]) was less than 10% in each case.

With `COc1ccc(/C=C2\Oc3ccccc3C2=O)c(OC)c1OC`, the inhibition (in test [1]; in the test with Bacteria [2]; with Bacteria [3]) was less than 10% in each case.

`O=C1/C(=C/c2cn(Cc3ccccc3Br)c3ccccc23)Oc2cc(O)cc(O)c21`: the inhibition in test [1] is less than 10%; with Bacteria [2] it was less than 10%; in the test with Bacteria [3], 23%.

As for `CN1CCN(c2ccc(/C=C3\Oc4cccc(O)c4C3=O)cc2)CC1`, the inhibition was less than 10% in test [1], less than 10% with Bacteria [2] and 12% in the test on Bacteria [3].

In the case of `O=C1/C(=C/c2ccc(Cl)cc2)Oc2cc(O)cc(O)c21`, the inhibition in test [1] is 11%; in the test on Bacteria [2], less than 10%; in the test on Bacteria [3] it was 14%.

Take `CC(C)CCn1cc(/C=C2\Oc3cc(O)cc(O)c3C2=O)c2ccccc21`: the inhibition in test [1] was 18%; in the test on Bacteria [2], less than 10%; in the test on Bacteria [3], 47.1%.

With `O=C1/C(=C/c2ccc(O)c(O)c2)Oc2cccc(O)c21`, the inhibition in test [1] is 12%; in the test on Bacteria [2], less than 10%; in the test with Bacteria [3], less than 10%.

With `Cn1cc(/C=C2\Oc3cc(O)cc(O)c3C2=O)c2ccccc21`, the results for the inhibition (in test [1]; in the test on Bacteria [2]; with Bacteria [3]) were 46%, less than 10% and 28%, respectively.

In the case of `O=C1/C(=C/c2cn(Cc3ccc(Br)cc3)c3ccccc23)Oc2cc(O)cc(O)c21`, the inhibition in test [1] is 44%; in the test with Bacteria [2], less than 10%; in the test with Bacteria [3], 22%.

Take `O=C1/C(=C/c2c(O)cc(O)cc2O)Oc2cc(O)ccc21`: the inhibition (in test [1]; in the test with Bacteria [2]; in the test with Bacteria [3]) was less than 10% throughout.

On to `COc1cc(/C=C2\Oc3ccccc3C2=O)ccc1O`, for which the inhibition (in test [1]; in the test on Bacteria [2]; in the test with Bacteria [3]) was less than 10% each time.

With `C=CCn1cc(/C=C2\Oc3cc(O)cc(O)c3C2=O)c2ccccc21`, the results for the inhibition (in test [1]; with Bacteria [2]; in the test on Bacteria [3]) were less than 10%, less than 10% and 16%, respectively.

Turning to `O=C1/C(=C/c2ccc(O)cc2O)Oc2c1ccc(O)c2I`, the inhibition in test [1] was less than 10%; in the test on Bacteria [2] it was 13%; in the test with Bacteria [3], 15%.

As for `O=C1/C(=C/c2ccc(C(F)(F)F)cc2)Oc2c1ccc(O)c2O`, the results for the inhibition (in test [1]; with Bacteria [2]; with Bacteria [3]) were less than 10%, less than 10% and 17%, respectively.

For `O=C1/C(=C/c2ccc(O)cc2O)Oc2c(O)cccc21`, the inhibition (in test [1]; in the test with Bacteria [2]; in the test with Bacteria [3]) was less than 10% each time.

Turning to `COc1cc(OC)c2c(c1)O/C(=C\c1ccc(OC)c(OC)c1OC)C2=O`, the inhibition was less than 10% in test [1], less than 10% with Bacteria [2] and 17% with Bacteria [3].

Source of the values: ChEMBL document CHEMBL5356995, “Aurones and derivatives as promising New Delhi metallo-β-lactamase (NDM-1) inhibitors” (Bioorg Med Chem, 2024).
